This is an account of results in US20230049619A1, “SIGMA-1 RECEPTOR LIGANDS AND USES THEREOF” (UNIVERSITE DE STRASBOURG, priority 2019, published 2023).

One series addresses T1, sigma-1 receptor (Homo sapiens, UniProt Q99720).
T1 construct: incubing Jurkat cell membranes ([…] protein per tube) with [^3H](+)-pentazocine; endogenous in cells; host or cells: Jurkat cell membranes
Nature of the series: sigma-1 receptor binding assay ([3H](+)-pentazocine displacement, Jurkat cell membranes). The following applies: [3H](+)-pentazocine 15 nM, 37° C., 2 hours; for inhibition at 0.01 µM: tested compound 10 nM. As to the method:
The sigma-1 receptor binding assays were performed according to Ganapathy et al. (J Pharmacol Exp Ther 28:251-60, 1999). The sigma-1 receptor binding assay was carried out by incubing Jurkat cell membranes ([…] protein per tube) with [^3H](+)-pentazocine a selective sigma-1 radiotracer (15 nM) and a range of concentration of tested compounds, at 37° C. for 2 hours in 5 mM tris/HCl buffer (pH=7.4). The inhibition of [^3H](+)-pentazocine binding assay is mainly used to determine the inhibition constant (Ki) of potential sigma-1 receptor ligands. These assays are performed with a single concentration of [^3H](+)-pentazocine at a concentration near its KD and increasing concentrations of non-radioactive ligands.

Where a name gives a salt, the structure may show the parent alone.

T1 sequence (Q99720 whole entry): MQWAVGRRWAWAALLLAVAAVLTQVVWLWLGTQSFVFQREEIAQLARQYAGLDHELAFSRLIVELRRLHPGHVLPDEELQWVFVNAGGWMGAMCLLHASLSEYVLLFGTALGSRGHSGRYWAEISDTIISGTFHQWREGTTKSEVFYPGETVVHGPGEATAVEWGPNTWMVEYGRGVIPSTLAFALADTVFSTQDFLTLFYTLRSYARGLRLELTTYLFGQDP

As to `Cl.O=c1c(-c2ccccc2)cncn1C1CCN(Cc2ccccc2)CC1` [cpd 43, 3-(1-benzylpiperidin-4-yl)-5-phenylpyrimidin-4(3H)-one hydrochloride], the melting point – broadly, the temperature of the solid-liquid transition – was 144 °C. Besides, testing at 0.01 µM on sigma-1 receptor gave an inhibition of 86%. Besides, at 0.1 µM the inhibition on sigma-1 receptor (tested compound 100 nM) was 90%. Regarding `O=c1cc(-c2ccccc2)cnn1CC1CCN(Cc2ccccc2)CC1` [cpd 8, 2-((1-benzylpiperidin-4-yl)methyl)-5-phenylpyridazin-3(2H)-one hydrochloride], the inhibition (usually the change of the read-out against control, counted positive when it falls) at 0.01 µM at sigma-1 receptor was found to be 31.5%.

Molecule `O=c1c(-c2ccccc2)cncn1CC1CCN(Cc2ccccc2)CC1` [cpd 45, 3-((1-benzylpiperidin-4-yl)methyl)-5-phenylpyrimidin-4(3H)-one] had an inhibition at 0.01 µM at sigma-1 receptor of 75.7%.
